Experimental data taken from patent publication US10039759B2, “Quinolines as FGFR kinase modulators” (priority 2011, dated 2018).
Read-outs that look alike come from different tables or passages of the source.

Experiments:
[1] = target: Ba/F3-FGFR4-transfected cells (Homo sapiens, UniProt P22455); test: Ba/F3-FGFR4 cellular proliferation assay, Alamar Blue; format: cell-based; conditions: 24 hours
Method: Ba/F3-FGFR4 (Cellular Proliferation Assay)
(§1) In a 384 well plate, 100 nl of compound dilution in DMSO was sprayed before adding 50 μl cell culture medium (phenol red free RPMI-1640, 10% FBS, 2 mM L-Glutamine and 50 μg/ml Gentamycin) containing 20000 cells per well of Ba/F3-FGFR4-transfected cells. Cells were put in an incubator at 37° C. and 5% CO2. After 24 hours, 10 μl of Alamar Blue solution (0.5 mM K3Fe(CN)6, 0.5 mM K4Fe(CN)6, 0.15 mM Resazurin and 100 mM Phosphate Buffer) was added to the wells, incubated for 4 hours at 37° C. and 5% CO2 before RFU's (Relative Fluorescence Units) (ex. 540 nm., em. 590 nm.) were measured in a fluorescence plate reader.
In this assay, the inhibitory effect of different compound concentrations (range 10 μM to 0.1 nM) was determined and used to calculate an IC50 (M) and pIC50 (−log IC50) value.

[2] = target: T1, Ba/F3-KDR-transfected cells (Homo sapiens, UniProt P35968, cells depend on it, form not given); test: Ba/F3-KDR (minus IL3 or plus IL3) cellular proliferation assay, Alamar Blue; format: cell-based; conditions: minus IL3; 24 hours, Alamar Blue
T1 construct: BAF3-KDR (MIN IL3 Alamar Blue pIC50); other: minus IL3; 24 hours, Alamar Blue
T1 sequence (P35968 whole entry, change not shown): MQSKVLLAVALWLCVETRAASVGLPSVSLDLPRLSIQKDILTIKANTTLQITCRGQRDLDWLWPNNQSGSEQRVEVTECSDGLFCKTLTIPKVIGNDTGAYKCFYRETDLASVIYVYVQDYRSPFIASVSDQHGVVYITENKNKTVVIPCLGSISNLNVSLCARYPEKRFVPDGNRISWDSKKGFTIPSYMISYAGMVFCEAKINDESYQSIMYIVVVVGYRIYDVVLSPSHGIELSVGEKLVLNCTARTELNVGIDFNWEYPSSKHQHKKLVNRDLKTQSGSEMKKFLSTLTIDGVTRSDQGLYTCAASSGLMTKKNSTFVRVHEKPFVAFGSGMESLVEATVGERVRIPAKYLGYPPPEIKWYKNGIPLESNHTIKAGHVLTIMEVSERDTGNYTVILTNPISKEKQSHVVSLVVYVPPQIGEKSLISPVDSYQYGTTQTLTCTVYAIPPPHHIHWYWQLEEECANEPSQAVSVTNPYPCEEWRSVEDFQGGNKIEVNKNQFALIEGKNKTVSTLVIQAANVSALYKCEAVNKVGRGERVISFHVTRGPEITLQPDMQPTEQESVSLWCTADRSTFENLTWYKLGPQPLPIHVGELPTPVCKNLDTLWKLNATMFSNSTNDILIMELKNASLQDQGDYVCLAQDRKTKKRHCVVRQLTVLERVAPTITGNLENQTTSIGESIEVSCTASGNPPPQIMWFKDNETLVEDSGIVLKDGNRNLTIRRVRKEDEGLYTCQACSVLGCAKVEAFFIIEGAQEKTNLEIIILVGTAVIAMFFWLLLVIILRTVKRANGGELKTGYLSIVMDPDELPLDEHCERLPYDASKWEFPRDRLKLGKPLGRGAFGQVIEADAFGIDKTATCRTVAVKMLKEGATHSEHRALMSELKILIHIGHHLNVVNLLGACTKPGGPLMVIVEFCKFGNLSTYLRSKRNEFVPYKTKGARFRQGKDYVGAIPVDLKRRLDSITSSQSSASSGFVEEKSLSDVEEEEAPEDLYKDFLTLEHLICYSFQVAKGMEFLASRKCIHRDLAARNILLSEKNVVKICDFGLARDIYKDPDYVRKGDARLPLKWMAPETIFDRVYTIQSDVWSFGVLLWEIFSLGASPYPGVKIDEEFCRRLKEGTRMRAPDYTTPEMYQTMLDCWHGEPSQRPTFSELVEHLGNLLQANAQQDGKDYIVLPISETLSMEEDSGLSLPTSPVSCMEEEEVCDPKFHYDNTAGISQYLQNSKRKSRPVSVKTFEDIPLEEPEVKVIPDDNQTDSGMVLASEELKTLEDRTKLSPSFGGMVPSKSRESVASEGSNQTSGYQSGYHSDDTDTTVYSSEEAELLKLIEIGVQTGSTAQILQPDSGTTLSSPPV
Method: Ba/F3-KDR (Minus IL3 or Plus IL3) (Cellular Proliferation Assay)
as §1, with “Ba/F3-KDR-transfected” for “Ba/F3-FGFR4-transfected”
(§2) In this assay, the inhibitory effect of different compound concentrations (range 10 μM to 0.1 nM) was determined and used to calculate an IC50 (M) and pIC50 (−log IC50) value. As a counterscreen the same experiment was performed in the presence of 10 ng/ml murine IL3.

FGFR2 (h) = FGFR2 (h) (Homo sapiens, UniProt P21802); test: FGFR2 (enzymatic assay), TR-FRET; format: biochemical; conditions: 0.4 μM ATP, 60 min; pIC50 = -log IC50 (M); average if tested multiple times; read-out: FGFR 2 pIC50 (converted)
Chain of FGFR2 (h) (P21802 22-821): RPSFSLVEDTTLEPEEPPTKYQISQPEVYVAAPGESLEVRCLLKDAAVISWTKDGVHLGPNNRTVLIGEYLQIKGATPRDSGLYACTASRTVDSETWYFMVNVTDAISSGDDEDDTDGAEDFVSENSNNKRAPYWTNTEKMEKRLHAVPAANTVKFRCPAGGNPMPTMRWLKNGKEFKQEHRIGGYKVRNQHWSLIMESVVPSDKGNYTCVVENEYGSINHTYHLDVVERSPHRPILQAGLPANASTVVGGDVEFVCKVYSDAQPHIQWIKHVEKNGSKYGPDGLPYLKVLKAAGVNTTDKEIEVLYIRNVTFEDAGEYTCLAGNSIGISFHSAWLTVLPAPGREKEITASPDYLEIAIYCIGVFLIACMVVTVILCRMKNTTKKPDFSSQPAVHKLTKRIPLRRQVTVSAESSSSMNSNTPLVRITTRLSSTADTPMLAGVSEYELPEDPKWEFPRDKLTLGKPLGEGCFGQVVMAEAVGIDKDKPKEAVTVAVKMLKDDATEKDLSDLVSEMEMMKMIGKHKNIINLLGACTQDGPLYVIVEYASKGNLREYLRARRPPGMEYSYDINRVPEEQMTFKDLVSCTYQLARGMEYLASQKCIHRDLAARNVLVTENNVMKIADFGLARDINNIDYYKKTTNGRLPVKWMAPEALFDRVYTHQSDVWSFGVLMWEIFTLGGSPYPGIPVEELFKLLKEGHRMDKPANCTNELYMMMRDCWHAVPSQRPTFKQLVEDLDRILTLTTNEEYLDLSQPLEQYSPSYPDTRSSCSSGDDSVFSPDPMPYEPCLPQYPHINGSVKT

[3] = target: T2, Ba/F3-FGFR1-transfected cells (Homo sapiens, UniProt P11362, cells depend on it, form not given); test: Ba/F3-FGFR1 (minus IL3 or plus IL3) cellular proliferation assay, Alamar Blue; format: cell-based; conditions: minus IL3, 24 hours
T2 construct: other: minus IL3; 24 hours, Alamar Blue
T2 sequence (P11362 whole entry, change not shown): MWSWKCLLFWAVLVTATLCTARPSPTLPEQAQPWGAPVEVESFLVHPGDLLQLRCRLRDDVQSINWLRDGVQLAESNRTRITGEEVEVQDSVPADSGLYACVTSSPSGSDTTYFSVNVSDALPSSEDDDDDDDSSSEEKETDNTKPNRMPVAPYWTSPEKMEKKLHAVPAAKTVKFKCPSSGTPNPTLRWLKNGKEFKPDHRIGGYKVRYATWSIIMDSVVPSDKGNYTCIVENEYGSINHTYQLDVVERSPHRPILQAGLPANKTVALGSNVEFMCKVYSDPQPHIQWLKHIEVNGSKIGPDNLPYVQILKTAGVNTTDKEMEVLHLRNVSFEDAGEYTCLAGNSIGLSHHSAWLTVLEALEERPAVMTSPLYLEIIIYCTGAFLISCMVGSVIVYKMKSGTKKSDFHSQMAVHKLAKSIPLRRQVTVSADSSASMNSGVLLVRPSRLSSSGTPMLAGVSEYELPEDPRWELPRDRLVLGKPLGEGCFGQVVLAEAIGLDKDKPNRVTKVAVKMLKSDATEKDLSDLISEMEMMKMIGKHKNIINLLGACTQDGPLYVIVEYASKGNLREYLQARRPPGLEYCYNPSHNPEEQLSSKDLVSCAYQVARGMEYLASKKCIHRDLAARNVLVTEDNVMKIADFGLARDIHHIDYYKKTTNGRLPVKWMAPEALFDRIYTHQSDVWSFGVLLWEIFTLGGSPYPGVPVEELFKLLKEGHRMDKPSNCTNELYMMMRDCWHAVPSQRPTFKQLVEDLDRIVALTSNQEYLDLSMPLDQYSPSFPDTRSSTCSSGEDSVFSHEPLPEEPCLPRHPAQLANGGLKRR
Method: Ba/F3-FGFR1 (Minus IL3 or Plus IL3) (Cellular Proliferation Assay)
as §1, with “Ba/F3-FGFR1-transfected” for “Ba/F3-FGFR4-transfected”
as §2

FGFR3 (h) = FGFR3 (h) (Homo sapiens, UniProt P22607); test: FGFR3 (enzymatic assay), TR-FRET; format: biochemical; conditions: 60 min, pIC50 = -log IC50 (M), average if tested multiple times
[4] = target: T3, Ba/F3-FGFR3-transfected cells (Homo sapiens, UniProt P22607, cells depend on it, form not given); test: Ba/F3-FGFR3 (minus IL3 or plus IL3) cellular proliferation assay, Alamar Blue; format: cell-based; conditions: minus IL3; 24 hours, Alamar Blue
T3 construct: BAF3-FGFR3 (MIN IL3 Alamar Blue- pIC50); other: minus IL3; 24 hours, Alamar Blue
Method: Ba/F3-FGFR3 (Minus IL3 or Plus IL3) (Cellular Proliferation Assay)
as §1, with “Ba/F3-FGFR3-transfected” for “Ba/F3-FGFR4-transfected”
as §2

KDR (h) = KDR (h) (Homo sapiens, UniProt P35968); test: KDR (VEGFR2) (enzymatic assay), TR-FRET; format: biochemical; conditions: 120 min, pIC50 = -log IC50 (M), average if tested multiple times
Chain of KDR (h) (P35968 20-1356): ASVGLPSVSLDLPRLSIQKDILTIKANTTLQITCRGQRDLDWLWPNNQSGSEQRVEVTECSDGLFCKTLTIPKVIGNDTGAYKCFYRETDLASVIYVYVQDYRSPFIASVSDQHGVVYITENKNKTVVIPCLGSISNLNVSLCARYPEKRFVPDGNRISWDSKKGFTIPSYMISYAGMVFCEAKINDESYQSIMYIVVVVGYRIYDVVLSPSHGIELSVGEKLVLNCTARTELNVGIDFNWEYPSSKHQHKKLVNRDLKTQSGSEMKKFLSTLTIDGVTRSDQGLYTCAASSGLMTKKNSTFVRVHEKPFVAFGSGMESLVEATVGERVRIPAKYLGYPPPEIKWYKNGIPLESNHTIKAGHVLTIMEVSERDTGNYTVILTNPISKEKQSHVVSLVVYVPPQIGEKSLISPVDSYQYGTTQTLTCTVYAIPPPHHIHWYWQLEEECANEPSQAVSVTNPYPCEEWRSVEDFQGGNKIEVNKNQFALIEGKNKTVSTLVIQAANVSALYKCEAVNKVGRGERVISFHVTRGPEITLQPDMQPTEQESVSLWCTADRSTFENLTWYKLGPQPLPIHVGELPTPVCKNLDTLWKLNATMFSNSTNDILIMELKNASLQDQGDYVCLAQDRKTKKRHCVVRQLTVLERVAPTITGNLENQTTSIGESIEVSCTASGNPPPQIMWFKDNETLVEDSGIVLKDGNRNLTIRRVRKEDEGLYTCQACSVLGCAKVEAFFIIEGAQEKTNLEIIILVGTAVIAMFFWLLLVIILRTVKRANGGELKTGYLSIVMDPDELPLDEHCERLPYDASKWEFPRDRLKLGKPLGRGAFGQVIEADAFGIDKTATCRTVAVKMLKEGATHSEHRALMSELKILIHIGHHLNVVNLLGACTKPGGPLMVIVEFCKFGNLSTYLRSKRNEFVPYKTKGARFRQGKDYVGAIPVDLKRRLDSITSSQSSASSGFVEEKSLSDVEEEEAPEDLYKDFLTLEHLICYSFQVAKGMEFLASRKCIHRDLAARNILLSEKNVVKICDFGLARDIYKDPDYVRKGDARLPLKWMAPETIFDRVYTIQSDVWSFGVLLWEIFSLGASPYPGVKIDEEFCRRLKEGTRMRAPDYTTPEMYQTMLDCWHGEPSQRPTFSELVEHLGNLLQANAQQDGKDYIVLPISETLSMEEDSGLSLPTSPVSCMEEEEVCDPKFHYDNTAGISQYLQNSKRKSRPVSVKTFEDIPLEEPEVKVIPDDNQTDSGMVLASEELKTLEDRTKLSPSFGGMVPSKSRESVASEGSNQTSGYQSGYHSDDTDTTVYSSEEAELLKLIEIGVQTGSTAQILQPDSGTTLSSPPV
Method: KDR (VEGFR2) (Enzymatic Assay)
In a final reaction volume of 30 μL, KDR (h) (150 ng/ml) was incubated with 50 mM HEPES pH 7.5, 6 mM MnCl2, 1 mM DTT, 0.1 mM Na3VO4, 0.01% Triton-X-100, 500 nM Btn-Flt3 and 3 μM ATP in the presence of compound (1% DMSO final). After incubation for 120 minutes at room temperature the reaction was stopped with 2.27 nM EU-anti P-Tyr, 7 mM EDTA, 31.25 nM SA-XL-665 and 0.02% BSA which was present for 60 minutes at room temperature. Time-Resolved Fluorescence Resonance Energy Transfer (TR-FRET) signal (ex340 nm. Em 620 nm, em 655 nm) was measured afterwards and results are expressed in RFU (Relative Fluorescence Units). In this assay, the inhibitory effect of different compound concentrations (range 10 μM to 0.1 nM) was determined and used to calculate an IC50 (M) and pIC50 (−log IC50) value.

FGFR4 (h) = FGFR4 (h) (Homo sapiens, UniProt P22455); test: FGFR4 (enzymatic assay), TR-FRET; format: biochemical; conditions: FGFR 4 pIC50, 5 μM ATP, 60 min; pIC50 = -log IC50 (M); average if tested multiple times
Chain of FGFR4 (h) (P22455 22-802): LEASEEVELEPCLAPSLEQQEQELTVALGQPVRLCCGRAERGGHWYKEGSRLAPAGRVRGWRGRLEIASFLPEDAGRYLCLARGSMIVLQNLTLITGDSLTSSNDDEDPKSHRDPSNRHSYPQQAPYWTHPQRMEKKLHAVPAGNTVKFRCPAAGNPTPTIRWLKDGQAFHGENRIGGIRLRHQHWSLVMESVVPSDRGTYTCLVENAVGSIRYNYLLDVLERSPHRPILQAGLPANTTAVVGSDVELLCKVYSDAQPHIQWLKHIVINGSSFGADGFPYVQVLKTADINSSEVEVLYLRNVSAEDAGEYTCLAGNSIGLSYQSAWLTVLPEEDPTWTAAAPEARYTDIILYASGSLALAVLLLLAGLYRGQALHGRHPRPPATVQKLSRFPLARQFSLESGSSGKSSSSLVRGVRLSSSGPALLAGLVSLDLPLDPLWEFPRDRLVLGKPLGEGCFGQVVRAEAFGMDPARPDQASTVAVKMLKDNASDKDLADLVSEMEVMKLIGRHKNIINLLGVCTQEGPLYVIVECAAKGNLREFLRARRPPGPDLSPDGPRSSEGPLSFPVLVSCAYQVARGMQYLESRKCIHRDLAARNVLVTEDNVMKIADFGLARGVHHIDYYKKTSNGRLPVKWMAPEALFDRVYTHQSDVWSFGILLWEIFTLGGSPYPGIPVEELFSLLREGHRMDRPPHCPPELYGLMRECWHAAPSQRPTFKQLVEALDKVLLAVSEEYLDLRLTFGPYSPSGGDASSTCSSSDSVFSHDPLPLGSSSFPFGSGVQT

[5] = 25 μM ATP, read-out: hFGFR 3 pIC50 (converted)
[6] = 3 μM ATP, read-out: VEGFR KDR pIC50 (converted)

Structure (SMILES) | BAF3-FGFR 4 (pIC50) [1] | BAF3-KDR (MIN IL3 Alamar Blue pIC50) [2] | IC50 (FGFR2 (h)) [M] | BAF3-FGFR1 (MIN IL3 pIC50) [3] | IC50 (FGFR3 (h); [5]) [M] | BAF3-FGFR3 (MIN IL3 Alamar Blue- pIC50) [4] | IC50 (KDR (h); [6]) [M] | IC50 (FGFR4 (h)) [M] | IC50 (FGFR3 (h); hFGFR 3 pIC50, 25 μM ATP) [M] | IC50 (KDR (h); VEGFR KDR pIC50, 3 μM ATP) [M]
COc1cc(OC)cc(N(CC(O)C(F)(F)F)c2ccc3ncc(-c4cnn(C)c4)cc3c2)c1 (single isomer, unassigned) [Compound 24] | 6.6 | 5.05 | 4.9e-09 | 7.73 | ~1.1e-09 | ~7.67 | 2.88e-07 | 7.94e-09 |  | 
COc1cc(OC)cc(N(CC(O)C(F)(F)F)c2ccc3ncc(-c4cnn(C)c4)cc3c2)c1 (single isomer, unassigned) [Compound 25] | 6.07 | <5 | 1.95e-08 | 6.57 | 5.89e-09 | 6.76 | 5.89e-07 | 6.03e-08 |  | 
COc1cc(OC)cc(N(CCNC(C)C)c2ccc3ncc(-c4cnn(C)c4)cc3c2)c1 [Compound 1] | 7.19 | 5.635 | 4.95e-09 | 7.4 | 7.94e-09 | 7.555 | 7.41e-08 | 1.38e-08 |  | 
COc1cc(OC)c(F)c(N(CCNC(C)C)c2ccc3ncc(-c4cnn(C)c4)cc3c2)c1 [Compound 2] | 7.83 | 6.18 | 3.24e-09 | 8.3 |  | 7.86 | 2.57e-08 | 3.98e-09 | 3.89e-09 | 
COc1cc(OC)cc(N(CCO)c2ccc3ncc(-c4cnn(C)c4)cc3c2)c1 [Compound 3] | 6.11 | 5.65 | 1.48e-08 | 6.31 | 4.17e-09 | 6.33 | 9.12e-08 | 3.8e-08 |  | 
COc1cc(OC)cc(N(CCCO)c2ccc3ncc(-c4cnn(C)c4)cc3c2)c1 [Compound 4] | 5.87 | 5.45 | 1.35e-08 | 6.26 | 5.89e-09 | 6.17 | 1.38e-07 | 3.09e-08 |  | 
COc1cc(OC)cc(N(CCCNCC(F)(F)F)c2ccc3ncc(-c4cnn(C)c4)cc3c2)c1 [Compound 5] | 5.5 | 5.18 | 3.16e-08 | 5.79 | 2.29e-08 | 5.67 | 2.45e-07 | 9.12e-08 |  | 
C#CCN(c1cc(OC)cc(OC)c1)c1ccc2ncc(-c3cnn(C)c3)cc2c1 [Compound 6] | 5.4 | 5.07 | 3.02e-08 | 5.7 | 1.35e-08 | 5.79 | 4.27e-07 | 1.51e-07 |  | 
COc1cc(OC)cc(N(CC2CCN(c3nccc(OC)n3)C2)c2ccc3ncc(-c4cnn(C)c4)cc3c2)c1 (stereo not shown) [Compound 7] | <5 | <5 | > 1e-06 | <5 | 9.12e-07 | <5 | > 1e-06 | > 1e-06 |  | 
COc1cc(OC)cc(N(Cc2ncccn2)c2ccc3ncc(-c4cnn(C)c4)cc3c2)c1 [Compound 8] | 5.64 | <5 | 2e-08 | 6.27 | 3.24e-08 | 6.14 | 8.13e-07 | 1.17e-07 |  | 
COc1cc(OC)cc(N(Cc2nccn2S(=O)(=O)N(C)C)c2ccc3ncc(-c4cnn(C)c4)cc3c2)c1 [Compound 9] | 5.18 | <5 | 7.76e-09 | 6.14 | 1.1e-08 | 6.17 | 1.66e-07 | 1.45e-07 |  | 
COc1cc(OC)cc(N(CCCN2CCCC2=O)c2ccc3ncc(-c4cnn(C)c4)cc3c2)c1 [Compound 10] | 5.63 | 5.11 | 1.29e-08 | 6.03 | 1.55e-08 | 6.2 |  | 8.32e-08 |  | 8.13e-08
COc1cc(OC)cc(N(CCCN)c2ccc3ncc(-c4cnn(C)c4)cc3c2)c1 [Compound 11] | 6.39 | 5.42 | 2.29e-09 | 6.67 | 3.39e-09 | 6.97 | 4.47e-08 | 2e-08 |  | 
COc1cc(OC)cc(C(O)c2ccc3ncc(-c4cnn(C)c4)cc3c2)c1 (stereo not shown) [Compound 12] | <5 | <5 | 4.17e-07 | <5.03 | 2.34e-07 | ~5.075 | > 1e-06 | > 9.33e-07 |  | 
